Experimental data reported in ChEMBL document CHEMBL1136125, “Comparative molecular field analysis (CoMFA) of phthalazine derivatives as phosphodiesterase IV inhibitors” (Bioorg Med Chem Lett, 2003).

Key:
Phosphodiesterase 4 [1] = biological target: T1, Phosphodiesterase 4 (Homo sapiens, UniProt P27815+Q08499+Q07343+Q08493); experiment: Inhibitory concentration against phosphodiesterase 4.; assay type: protein assay
Phosphodiesterase 4 [2] = biological target: T1, Phosphodiesterase 4; experiment: In vitro inhibitory concentration against phosphodiesterase 4.; assay type: protein assay

Row | SMILES | Log IC50 (Phosphodiesterase 4 [1]) | IC50 (Phosphodiesterase 4 [2])
1 | CCc1nnc(Cc2c(Cl)cncc2Cl)c2cc(OC3CCCC3)c(OC)cc12 | -7.12 | 0.075 µM
2 | COc1ccc2c(Cc3c(Cl)cncc3Cl)nncc2c1OC1CCCO1 (stereo unspecified) |  | 0.153 µM
3 | COc1ccc2c(Cc3c(Cl)cncc3Cl)nncc2c1OCCCCCc1ccccc1 | -7.25 | 
4 | COc1cc2c(C)nnc(Cc3c(Cl)cncc3Cl)c2cc1OC1CCCC1 | -6.84 | 0.146 µM
